Laboratory results as given in publication PMC6149679 (2017).

Columns and labels:
poly A (RNA, polymer) A = assay: fluorescence titration (λexc 355 nm), Scatchard; details: Na+ (sodium cacodylate, I = 0.05 M); pH 7.0; n fixed at 0.2; polynucleotide as phosphates; per base
[1] = test system: poly AH+-poly AH+ (poly A at pH 5) (RNA, polymer, adenine protonated at pH 5) A; assay: fluorescence titration (λexc 355 nm); details: Na+ (sodium cacodylate, I = 0.05 M), emission of 2 did not change
[2] = test system: poly A–poly U (RNA, polymer) A/U; assay: fluorescence titration (λexc 355 nm), Scatchard; details: Na+ (sodium cacodylate, I = 0.05 M); pH 5.0; n fixed at 0.2; polynucleotide as phosphates; per base
[3] = test system: poly A–poly U (RNA, polymer) A/U; assay: fluorescence titration (λexc 355 nm); details: Na+ (sodium cacodylate, I = 0.05 M); pH 7.0; no emission change
[4] = test system: poly A–poly U (RNA, polymer) A/U; assay: thermal denaturation, absorbance at 260 nm; details: Na+ (sodium cacodylate, I = 0.05 M); pH 7.0; no stabilisation (error ± 0.5 °C); same at pH 5

Row | log Ks (poly A (RNA, polymer) A) | binding [1] | log Ks [2] | binding [3] | binding [4] | SMILES
1 | 4.1 | no | 3.5 | no | no | COC(=O)C(Cc1cc2cn(CCN3C(=O)c4ccccc4C3=O)c(=O)nc2[nH]1)NC(=O)CNC(=O)[C@@H](CCCCN)NC(=O)c1ccc(C(=O)NC(=N)N)[nH]1 (stereo partly shown)
2 | – | – | – | no | no | COC(=O)C(Cc1cc2cn(CCN3C(=O)c4ccccc4C3=O)c(=O)nc2[nH]1)NC(=O)CNC(=O)[C@H](N)CCCCNC(=O)c1ccc(C(=O)NC(=N)N)[nH]1 (stereo partly shown)
